The text below walks through data of article PMC6961122 (Bioorganic & Medicinal Chemistry, 2020).

The structures appear in SMILES notation. Like-named read-outs stand apart in the source and are kept apart here.

One assay concerns U87 cells. As to the kind of experiment: Cell viability assay (PrestoBlue, 5 d) in U87 glioma cells. The class given is cell-based. The settings on record: library screen, 5 d treatment, mean of three independent experiments in triplicates, read-out: EC50 U87 ± SEM. On the procedure: (§1) The antiproliferative activity of a total of 100 compounds was tested against U87 and T98 glioma cell lines, using TMZ[3] and the Topoisomerase I inhibitor SN-38[18] as positive controls. Cells were treated with the library members for 5 d at three different concentrations (3, 30 and 300 µM) and cell viability determined using the PrestoBlue reagent. Half-maximal effective concentration (EC50) values were calculated from the corresponding dose-response curves and plotted in Fig. 2a as a heatmap to facilitate data analysis, with black meaning no activity and dark to light green to yellow transitions indicating decreasing EC50 values (=increasing potencies). Table 1 of the Suppl. Data contains the corresponding EC50 values ± SEM.
(§2) INK128 and SN-38 were used as positive controls. […] Structurally, these derivatives differed in the size of the alkyl group of the N1 position and the presence or absence of an oxygen atom in that moiety (see Suppl. Data).
(§3) U87 and T98 cells (ATCC) were cultured in DMEM (Gibco), supplemented with 10% (v/v) FBS (Gibco) and 2 mM L-Glutamine (Gibco) in a standard incubator (95% humidity, 5% CO2), and subcultured twice per week through trypsinization. G317 patient-derived glioma cells were established by the Glioma Cellular Genetics Resource (gcgr.org.uk) funded by Cancer Research UK. Ethics approval for use of patient-derived cells and early access confirmation to reagents from the Glioma Cellular Genetics Resource assured that all ethical issues according to UK legislation are fulfilled. G317 were cultured in DMEM/HAMS-F12 (Sigma) supplemented with 1.5 g L^−1 D-(+)-Glucose (Sigma), MEM non-essential aminoacids (Gibco), 0.015% (w/v) Penicillin-Streptomycin (Gibco), 0.012% (w/v) BSA (Gibco), 0.1 mM β-mercaptoethanol (Gibco), B27 (Gibco) and N2 supplements (Gibco). Cells were detached using accutase solution (Sigma) and subcultured once per week. Before adding to the cells, medium was supplemented with 10 ng ml^−1 mouse EGF (Preprotech), 10 ng ml^−1 human FGF (Preprotech), and 1 µg ml^−1 Laminin (Sigma).
(§4) 1 × 10^3 U87 cells/well, 5 × 10^2 T98 cells/well, 1 × 10^4 G317 cells/well, 1 × 10^4 HBVP cells/well and 1 × 10^4 bEnd3 cells/well were seeded in 96-well plates. After 48 h in culture, cells were treated with the inhibitors for 5 d. For GI50 determination, the viability of a triplicate sample of each experiment before treatment was measured with the PrestoBlue Reagent (Invitrogen), to establish a basepoint 0% of growth. […] ZIP Synergy scores were obtained with Synergy finder.[22] Viability percentage, EC50 and GI50 values were obtained using GraphPad Prism version 8.0.0 for Windows, GraphPad Software, San Diego, California USA, www.graphpad.com.

For another assay, the system named is T98 cells. The experiment in a line: Cell viability assay (PrestoBlue, 5 d) in T98 glioma cells. The class given is cell-based. As to conditions: library screen, 5 d treatment, mean of three independent experiments in triplicates, read-out: EC50 T98 ± SEM. Here is the method: as §1, §2, §3, §4

With `CCOC(Cn1nc(-c2cccc(C(N)=O)c2)c2c(N)ncnc21)OCC` [eCF208], the concentration giving a half-maximal response (EC50) in the assay with U87 cells and in the assay on T98 cells was greater than 30 µM throughout.
For `CN(C)C1CCN(CCn2nc(-c3ccc(NC(=O)OC(C)(C)C)nc3)c3c(N)ncnc32)CC1` [eCF549], the EC50 in the assay on U87 cells and with T98 cells was greater than 30 µM in each case.
Regarding `COc1cc(-c2nn(CCN3CCC(N4CCCC4)CC3)c3ncnc(N)c23)ccc1NC(=O)OC(C)(C)C` [eCF518], the values for the EC50 in the assay with U87 cells and in the assay on T98 cells were 12 ± 0.168 µM and 3.48 ± 0.567 µM, respectively.
As for `COc1cc(-c2nn(CCN3CCC(N(C)C)CC3)c3ncnc(N)c23)ccc1NC(=O)Cc1ccccc1` [eCF530], the concentration for a half-maximal effect (EC50) is greater than 30 µM with U87 cells and 22.8 ± 3.21 µM with T98 cells.
On to `CN(C)C1CCN(CCn2nc(-c3ccc(CC(=O)O)cc3)c3c(N)ncnc32)CC1` [eCF556], for which the EC50 with U87 cells and in the assay with T98 cells was greater than 30 µM each time.
For `CNc1ncc2c(-c3ccc(OC)cc3)nn(CC3OCCO3)c2n1` [eSM110], the concentration giving a half-maximal response (EC50) in the assay on U87 cells and in the assay on T98 cells was greater than 30 µM each time.
For `Cc1ccc(-c2nn(CCN3CCCCC3)c3ncnc(N)c23)cc1` [eCF111], the EC50 with U87 cells and in the assay with T98 cells was greater than 30 µM in each case.
Regarding `COC(Cn1nc(-c2cnc3[nH]ccc3c2)c2c(N)ncnc21)OC` [eCF308], the half-maximal effective concentration (EC50) with U87 cells (Homo sapiens, U-87 MG, 120 h) stood at 6.16 ± 1.22 µM; with T98 cells (Homo sapiens, T98, 120 h) it was 7.34 ± 1.56 µM.
Turning to `CNc1ncc2c(-c3ccc(N4CCNCC4)cc3)nn(Cc3cn(Cc4ccccc4)nn3)c2n1` [eSM135], the values for the concentration for a half-maximal effect (EC50) in the assay with U87 cells and in the assay on T98 cells were 13 ± 0.291 µM and 6.26 ± 1.39 µM, respectively.
The corresponding values for `Cc1ccc(-c2nn(CCN3CCN(CCN(C)C)CC3)c3ncnc(N)c23)cc1` [eCF105] are greater than 30 µM and greater than 30 µM.
The corresponding values for `CN(C)C1CCN(CCn2nc(-c3cccc(NC(=O)OC(C)(C)C)c3)c3c(N)ncnc32)CC1` [eCF542] are greater than 30 µM and greater than 30 µM.
The corresponding values for `COc1ccc(-c2nn(CCN3CCC(N(C)C)CC3)c3ncnc(N)c23)cc1NC(=O)OC(C)(C)C` [eCF558] are greater than 30 µM and greater than 30 µM.
In the case of `CN(C)CC1CCN(CCn2nc(-c3cccc(O)c3)c3c(N)ncnc32)CC1` [eCF225], the EC50 in the assay with U87 cells and with T98 cells was greater than 30 µM in each case.
In the case of `COc1cc(-c2nn(CCN3CCC(N4CCCCC4)CC3)c3ncnc(N)c23)ccc1NC(=O)OC(C)(C)C` [eCF599], the figures for the EC50 in the assay with U87 cells and with T98 cells were greater than 30 µM and 23 ± 13.4 µM, respectively.
The corresponding values for `CN(C)CC1CCN(CCn2nc(-c3ccoc3)c3c(N)ncnc32)CC1` [eCF226] are greater than 30 µM and greater than 30 µM.
On the same counts, the results for `Nc1ncnc2c1c(-c1ccc(F)cc1)nn2CC1CCCC1` [eSM211] are greater than 30 µM and 24.6 ± 3.25 µM.
For `CCOC(Cn1nc(-c2cccc(O)c2)c2c(N)ncnc21)OCC` [eCF205], the 50% effective concentration (EC50) with U87 cells and in the assay on T98 cells was greater than 30 µM in each case.
In the case of `COc1cc(-c2nn(CCN3CCC(N(C)C)CC3)c3ncnc(N)c23)ccc1NC(=O)NC(C)(C)C` [eCF540], the results for the EC50 with U87 cells and in the assay on T98 cells were greater than 30 µM and 24.8 ± 2.68 µM, respectively.
On the same counts, the results for `COc1cc(-c2nn(CCN3CCC(N(C)C)CC3)c3ncnc(N)c23)ccc1NC(=O)OCc1ccccc1` [eCF533] are 8.22 ± 0.671 µM and 3.79 ± 0.519 µM.
For `Nc1ncc(-c2ccc(-c3nn(CC4CCCC4)c4ncnc(N)c34)cc2)o1` [eCF341], the EC50 was 20.3 ± 2.63 µM in the assay on U87 cells and 26.2 µM in the assay on T98 cells.
The corresponding values for `CN(C)CC1CCN(CCn2nc(C#Cc3ccccc3)c3c(N)ncnc32)CC1` [eCF230] are 18.2 ± 1.2 µM and 13.7 ± 1.84 µM.
For the compound `Cc1ccc(-c2nn(CCN3CCC(CCN(C)C)CC3)c3ncnc(N)c23)cc1` [eCF113], the EC50 with U87 cells came to 6.74 ± 1.48 µM; in the assay on T98 cells it was 5.72 ± 1.95 µM.
On the same counts, the results for `CNc1ncc2c(-c3ccc(OC)cc3)nn(CC3CCCC3)c2n1` [eSM105] are 20.9 ± 1.73 µM and 6.36 ± 0.563 µM.
As to `CCOC(Cn1nc(-c2ccc(C(N)=O)cc2)c2c(N)ncnc21)OCC` [eCF209], the EC50 in the assay with U87 cells and in the assay with T98 cells was greater than 30 µM in each case.
`CNc1ncc2c(-c3ccc(C(N)=O)cc3)nn(CC3CCCC3)c2n1` [eSM106]: the EC50 with U87 cells and in the assay with T98 cells was greater than 30 µM in each case.
As to `CNc1ncc2c(-c3ccc(N4CCNCC4)nc3)nn(Cc3cn(-c4ccc(Cl)cc4)nn3)c2n1` [eSM143], the EC50 was found to be 3.06 ± 0.833 µM with U87 cells and 3.02 ± 0.568 µM in the assay on T98 cells.
Turning to `CCOC(Cn1nc(-c2ccc3ncccc3c2)c2c(N)ncnc21)OCC` [eCF203], the EC50 with U87 cells and in the assay on T98 cells was greater than 30 µM in each case.
As for `Nc1ncnc2c1c(-c1ccc(-c3ccccc3)cc1)nn2CC1CCCC1` [eSM212], the EC50 with U87 cells is greater than 30 µM; in the assay with T98 cells, 22.8 ± 3.13 µM.
On the same counts, the results for `Nc1ncnc2c1c(-c1ccoc1)nn2C1CCCC1` [eSM209] are 23.6 ± 2.51 µM and 15.6 ± 1.45 µM.
As to `CN(C)C1CCN(CCn2nc(-c3ccc(CC(=O)OC(C)(C)C)cc3)c3c(N)ncnc32)CC1` [eCF553], the EC50 in the assay with U87 cells was greater than 30 µM; in the assay on T98 cells, 6.58 ± 2.18 µM.
`CNc1ncc2c(-c3ccc(N4CCN(C(=O)C(C)(C)C)CC4)nc3)nn(Cc3cn(Cc4ccccc4)nn3)c2n1` [eSM153]: the EC50 with U87 cells and in the assay with T98 cells was greater than 30 µM each time.
Consider `CNc1ncc2c(-c3ccc(N4CCNCC4)nc3)nn(Cc3cn(C4CCCCC4O)nn3)c2n1` (stereo not drawn) [eSM123], for which the results for the EC50 in the assay with U87 cells and in the assay with T98 cells were 25.4 ± 4.66 µM and 24.2 ± 3.6 µM, respectively.
Consider `CNc1ncc2c(-c3cccc(C(N)=O)c3)nn(CC3CCCC3)c2n1` [eSM108], for which the EC50 with U87 cells was 23.8 ± 2.78 µM; in the assay with T98 cells, greater than 30 µM.
As to `CNc1ncc2c(-c3ccc(N(C)C)nc3)nn(Cc3cn(Cc4ccccc4)nn3)c2n1` [eSM146], the EC50 with U87 cells and in the assay with T98 cells was greater than 30 µM in each case.
With `COc1cc(-c2nn(CCN3CCC(N(C)C)CC3)c3ncnc(N)c23)ccc1NC(=O)Oc1ccccc1` [eCF532], the EC50 turned out to be 29.2 ± 3.88 µM in the assay on U87 cells and 9.1 ± 1.37 µM in the assay on T98 cells.
For `CNc1ncc2c(-c3ccc(N4CCNCC4)nc3)nn(Cc3cn(C4CCCC4O)nn3)c2n1` (stereo not drawn) [eSM121], the results for the 50% effective concentration (EC50) in the assay with U87 cells and in the assay on T98 cells were 16.5 ± 1.88 µM and 26.3 ± 1.81 µM, respectively.
As for `CNc1ncc2c(-c3ccc(N4CCN(C)CC4)nc3)nn(CC3CCCC3)c2n1` [eSM157], the EC50 with U87 cells was found to be 7.28 ± 2.7 µM; with T98 cells it was 1.71 ± 0.512 µM.
Turning to `CNc1ncc2c(-c3ccc(C(F)(F)F)cc3)nn(CC3OCCO3)c2n1` [eSM114], the EC50 in the assay with U87 cells and in the assay on T98 cells was greater than 30 µM throughout.
On to `CN(C)C1CCN(CCn2nc(-c3ccc(CC#N)cc3)c3c(N)ncnc32)CC1` [eCF600], for which the 50% effective concentration (EC50) with U87 cells and in the assay with T98 cells was greater than 30 µM throughout.
For the compound `CN(C)CC1CCN(CCn2nc(-c3ccc4[nH]ccc4c3)c3c(N)ncnc32)CC1` [eCF221], the results for the EC50 in the assay with U87 cells and in the assay with T98 cells were 18.7 ± 4.91 µM and 16.8 ± 3.66 µM, respectively.
The corresponding values for `CN(C)C1CCN(CCn2nc(-c3ccc(NC(=O)OC(C)(C)C)cc3)c3c(N)ncnc32)CC1` [eCF543] are greater than 30 µM and 11.4 ± 1.44 µM.
For the compound `CCOC(Cn1nc(-c2ccoc2)c2c(N)ncnc21)OCC` [eCF206], the EC50 in the assay with U87 cells and in the assay with T98 cells was greater than 30 µM each time.
On to `CN(C)C1CCN(CCn2nc(-c3cnc4[nH]ccc4c3)c3c(N)ncnc32)CC1` [eCF502], for which the EC50 stood at 15.2 ± 2.36 µM in the assay with U87 cells and 17.6 ± 3.93 µM in the assay with T98 cells.
On to `Nc1ncnc2c1c(-c1cnc3[nH]ccc3c1)nn2CC1OCCO1` [eCF307], for which the EC50 with U87 cells is 11.3 ± 2.56 µM; in the assay with T98 cells it was 13.1 ± 2.65 µM.
The corresponding values for `Nc1ncnc2c1c(-c1ccc(C(F)(F)F)cc1)nn2CC1CCCC1` [eSM210] are 25 ± 3.15 µM and 18.8 ± 2.69 µM.
